In one assay the test system is phospho-ERK. As to the kind of experiment: Phospho-ERK Cell-Based Assay (ELISA), HCT116. The following applies: Homo sapiens, HCT-116; HCT116 cell line, 2 h or 24 h exposure. The protocol:
Phospho-ERK Cell-Based Assay
Compounds are tested in a cell-based phospho-ERK ELISA using the following cell lines:
(§1) HCT116 human colorectal carcinoma (ATCC)
(§2) Both cell lines are maintained in DMEM/F12 (1:1) media (Gibco) supplemented with 10% FCS at 37° C. in a 5% CO2 humidified incubator.
Cells are seeded in 96-well plates at 2,000 cells/well and after 24 h they are exposed to different concentrations of compounds in 0.83% DMSO. Cells are grown for a further 2 h or 24 h, fixed with formaldehyde (2% final) and permeabilised with methanol. Following blocking with TBST-3% BSA, fixed cells are incubated with primary antibody (anti-phospho ERK from rabbit) over-night at 4° C. Cells are incubated with Propidium Iodide (DNA fluorescent dye) and detection of cellular p-ERK is performed using an anti-rabbit secondary antibody conjugated to the fluorescent Alexa Fluor 488 dye (Molecular probes). The fluorescence is analysed using the Acumen Explorer (TTP Labtech), a laser-scanning microplate cytometer, and the Alexa Fluor 488 signal is normalised to the PI signal (proportional to cell number).
The EC50 is defined as the concentration at which a given compound achieves a signal half way between the baseline and the maximum response. EC50 values are calculated using the XLfit software package (version 2.0.5).

In assay [1] the test system is HCT116 human colorectal carcinoma. As to the kind of experiment: Cell Proliferation Assay (CellTiter-Glo), HCT116. Type of assay: cell-based. The following applies: HCT-116, HCT116 cell line, 72 h exposure. The protocol:
Compounds are tested in a cell proliferation assay using the following cell lines:
as §1, §2
Cells are seeded in 96-well plates at 2,000 cells/well and after 24 hours they are exposed to different concentrations of compounds in 0.83% DMSO. Cells are grown for a further 72 h, and an equal volume of CellTiter-Glo reagent (Promega) is added to each well. This lyses the cells and generates a luminescent signal proportional to the amount of ATP released (and therefore proportional to the number of cells in the well) that can be detected using a multi-well luminometer.
The EC50 is defined as the concentration at which a given compound achieves 50% inhibition of control. IC50 values are calculated using the XLfit software package (version 2.0.5).

Take `C[C@H](O)CONC(=O)c1ccn2cncc2c1Nc1ccc(Br)cc1F` [Example 12, 8-(4-Bromo-2-fluoro-phenylamino)-imidazo[1,5-a]pyridine-7-carboxylic acid ((S)-2-hydroxy-propoxy)-amide]: the values for the EC50 (in the assay on phospho-ERK; in assay [1]) were below 0.2 µM and below 0.1 µM, respectively.

(Values after patent US8293763B2, “8-anilinoimidazopyridines and their use as anti-cancer and/or anti-inflammatory agents” (Genentech, Inc., priority 2007, dated 2012).)
